Test results published in publication PMC11317636, “Convergent evolution in toxin detection and resistance provides evidence for conserved bacterial–fungal interactions” (Proceedings of the National Academy of Sciences of the …, 2024).

Experiments:
GliT = molecular target: T1, GliT (Aspergillus fumigatus, UniProt E9RAH5); format: biochemical; details: 40 µM TCEP-reduced substrate, 0.2 µM enzyme, 20 mM Tris-HCl pH 7.0, 100 mM NaCl, room temperature, 15 min
T1 construct: one replicate with C-terminal mCherry fusion purified from A. fumigatus (A1160 background)

DnoP (PA4170) = molecular target: T2, DnoP (PA4170) (Pseudomonas aeruginosa, UniProt A0A0H2ZG54); assay: DTNB assay of residual free thiols at […] nm; format: biochemical; details: 40 µM TCEP-reduced substrate, 0.2 µM enzyme, 20 mM Tris-HCl pH 7.0, 100 mM NaCl, room temperature, 15 min
T2 construct: gene PA14_09950; one replicate with C-terminal mCherry fusion purified from A. fumigatus
T2 sequence (A0A0H2ZG54 entry or part of it): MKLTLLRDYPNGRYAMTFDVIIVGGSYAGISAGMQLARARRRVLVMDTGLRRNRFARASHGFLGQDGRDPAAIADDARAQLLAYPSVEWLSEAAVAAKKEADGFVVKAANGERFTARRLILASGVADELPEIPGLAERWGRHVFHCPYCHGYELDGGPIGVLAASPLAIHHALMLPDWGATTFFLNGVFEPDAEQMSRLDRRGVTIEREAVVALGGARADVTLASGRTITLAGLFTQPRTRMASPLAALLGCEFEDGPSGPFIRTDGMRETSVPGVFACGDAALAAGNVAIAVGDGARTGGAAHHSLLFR

T1 sequence (E9RAH5 whole entry, the tested form may be a part): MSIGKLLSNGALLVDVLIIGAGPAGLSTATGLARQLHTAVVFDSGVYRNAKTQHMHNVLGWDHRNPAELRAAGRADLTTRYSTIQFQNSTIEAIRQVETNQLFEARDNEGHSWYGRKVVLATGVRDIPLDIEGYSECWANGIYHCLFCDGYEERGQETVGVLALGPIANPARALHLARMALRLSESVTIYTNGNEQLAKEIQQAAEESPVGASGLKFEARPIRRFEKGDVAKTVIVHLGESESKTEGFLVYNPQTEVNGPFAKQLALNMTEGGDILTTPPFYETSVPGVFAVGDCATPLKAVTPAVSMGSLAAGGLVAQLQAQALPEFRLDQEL

Structure (SMILES): CN1C(=O)C2(S)CC3=CC=CC(O)C3N2C(=O)C1(S)CO (centres unmarked) [compound 1, reduced gliotoxin]
- DTNB assay of residual free thiols at 412 nm (GliT): Recombinant PA4170 and GliT catalyzed disulfide oxidation of both gliotoxin and holomycin
- DTNB assay of residual free thiols at 412 nm (DnoP (PA4170)): Recombinant PA4170 and GliT catalyzed disulfide oxidation of both gliotoxin and holomycin
